Source: patent publication US20230391772A1, “METHODS AND COMPOSITIONS FOR TARGETED PROTEIN DEGRADATION” (Ranok Therapeutics (Hangzhou) Co. Ltd., priority 2020, published 2023)
pEC50, pIC50: −log10 of the molar value.

Key:
HSP90a protein = target: T1, HSP90a protein (Homo sapiens, UniProt P07900); assay: HSP90α-binding fluorescent polarization (FP) assay, BODIPY-labeled RNK04010 probe; conditions: FP competition with RNK04010 (BODIPY-labeled), 5 nM, 300 min at 25° C.
T1 construct: purchased BPS Bioscience 50298
Method in brief: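 Binding was scored by fluorescence polarization after adding N-terminal HSP90a to wells holding probe and compound, with compound tested from 20 μM to 5.2 nM. Probe-dependent times at 25° C were 120 min for FITC-geldanamycin and 300 min for RNK04010-BODIPY, both at 5 nM final.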

[1] = test system: MIA PaCa-2 human pancreatic carcinoma; assay: MIA PaCa-2 CCK-8 proliferation assay; type: cell-based; conditions: Homo sapiens, MIA PaCa-2, 72 h, MIA PaCa-2 cells
Method in brief: (§1)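 CCK-8 absorbance readout; % inhibition = 100 − (compound − blank)/(DMSO − blank) × 100, blank = medium + DMSO, no cells. Dose range 20 μM down to 1.02 nM, 3-fold steps. KRAS(G12C) copy number: MIA PaCa-2 2; NCI-H358 1; NCI-H23 1.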

KRAS(G12C) [2] = target: T2, KRAS(G12C) (Homo sapiens, UniProt P01116, G12C); assay: KRAS(G12C) Western blot protein degradation assay in MIA PaCa-2 cells; type: cell-based; parameters: host or cells: LU65A; conditions: 48 hr; for inhibition at 0.1562 µM: 156.2 nM; for inhibition at 0.3125 µM: 312.5 nM; for inhibition at 0.625 µM: 625 nM; for inhibition at 1.25 µM: 1250 nM; for inhibition at 2.5 µM: 2500 nM; for inhibition at 5 µM: 5000 nM; for inhibition at 10 µM: 10,000 nM
T2 sequence (P01116 1-188 isoform P01116-2 G12C): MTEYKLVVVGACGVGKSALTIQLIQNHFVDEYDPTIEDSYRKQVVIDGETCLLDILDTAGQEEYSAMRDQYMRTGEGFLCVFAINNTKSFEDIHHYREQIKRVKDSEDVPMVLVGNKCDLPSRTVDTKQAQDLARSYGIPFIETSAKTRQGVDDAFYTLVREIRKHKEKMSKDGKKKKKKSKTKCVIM
Protocol: The following cancer cell lines were employed: BT-474 human breast carcinoma (ATCC, #HTB-20); MIA PaCa-2 human pancreatic carcinoma [2 copies KRAS(G12C)](ATCC, #CRL-1420); NCI-H23 human non-small cell lung cancer [1 copy KRAS(G12C)](ATCC, #CRL-5800); NCI-H358 human non-small cell lung cancer [1 copy KRAS(G12C)](ATCC, #CRL-5807); LU65A human lung carcinoma (Pharmaron, Beijing, China). Cell lines were cultured essentially according to ATCC and Pharmaron recommendations.
KRAS(G12C) Western Blot Protein Degradation Assay
The MIA PaCa-2 human pancreatic carcinoma cell line and LU65A human lung cancer cell line, which expresses KRAS(G12C), were seeded in 6- or 12-well tissue culture plates, and after 1 hr, test compounds were added at various concentrations and incubated at 37° C./5% CO2 for 48 hr (MIA Paca-2) and 6 hr (LU65A) respectively. Cells were then washed with cold PBS, aspirated and cold RIPA buffer containing a protease/phosphatase inhibitor cocktail was added to lyse cells. After centrifugation, the total protein concentrations of cell lysates were determined using the BCA protein assay. Samples were normalized for equivalent protein concentrations, 5×SDS-PAGE loading buffer added and denatured at 100° C. for 10 min. 20 μl of each sample/well was loaded on a SDS-PAGE gel and electrophoresed for 20 min at 80 V, then 120 V for 1.5 hr. Gels were then electroblotted to nitrocellulose membranes using a wet-transfer method at 250 mA for 2.5 hr. Membranes were incubated with blocking buffer for 1 hr and washed 3 times with TBST for 5 min. Membranes were then incubated with anti-KRAS (Sigma-Aldrich, #SAB1404011) and anti-β-Actin monoclonal antibodies (Cell Signaling Technology, #3700) diluted in blocking buffer at 4° C. overnight per the manufacturer's recommendations. After washing 3 times, blots were incubated with appropriately labeled secondary antibodies for 1 hr at room temperature and washed again. Fluorescence imaging and quantitation was performed using a LI-COR Odyssey. Results was analyzed using GraphPad Prism 7 software. Compound degradation of was determined by the following equation and DC50 values (the concentration at which 50% of the maximal degradation of KRAS occurs) calculated using GraphPad Prism 7 software:
% Inhibition=100−(D−B)/(S−B)*100%. • S: Fluorescence intensity of cells with antibody • D: Fluorescence intensity of compound-treated cells with antibody • B: Fluorescence intensity of cells without antibody

KRAS(G12C) [3] = target: T2, KRAS(G12C); assay: KRAS(G12C)/SOS1 homogeneous time-resolved fluorescence (HTRF) assay; parameters: purchased Cisbio 63ADK000CB16PEG; conditions: absence of GTP, 4° C. for 3 hr, read-out: KRAS (G12C) binding
Method in brief: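 Three-hour incubation at 4 °C of 3-fold compound dilutions (lowest 1.02 nM) with KRAS(G12C), SOS1 and detection reagents, GTP absent. Disruption of the KRAS(G12C)/SOS1 complex detected by time-resolved fluorescence.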

KRAS(G12C) [4] = target: T2, KRAS(G12C); assay: KRAS(G12C) Western blot protein degradation assay in LU65A cells; type: cell-based; parameters: LU65A human lung cancer cell line, which expresses KRAS(G12C); host or cells: LU65A; conditions: 6 hr
Method in brief: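 KRAS levels read by fluorescent Western blot (β-actin as reference) on BCA-normalized lysates. Exposure to a compound concentration range at 37 °C lasted 6 hr in LU65A and 48 hr in MIA PaCa-2; DC50 taken as half-maximal degradation concentration.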

[5] = test system: NCI-H358 human non-small cell lung cancer; assay: NCI-H358 CCK-8 proliferation assay; type: cell-based; conditions: NCI-H358 cells, 72 hr
Method in brief: as §1

| Structure (SMILES) | pIC50 (HSP90a protein) | pEC50 [1] | inhibition at 0.1562 µM (KRAS(G12C) [2]) [%] | inhibition at 0.3125 µM (KRAS(G12C) [2]) [%] | inhibition at 0.625 µM (KRAS(G12C) [2]) [%] | inhibition at 1.25 µM (KRAS(G12C) [2]) [%] | inhibition at 2.5 µM (KRAS(G12C) [2]) [%] | inhibition at 5 µM (KRAS(G12C) [2]) [%] | inhibition at 10 µM (KRAS(G12C) [2]) [%] | pIC50 (KRAS(G12C) [3]) | DC50 (KRAS(G12C) [4]) [nM] | pEC50 [5] |
| --- | --- | --- | --- | --- | --- | --- | --- | --- | --- | --- | --- | --- |
| C=CC(=O)N1CCN(c2nc(OC[C@@H]3C[C@H](C(=O)N[C@@H]4CCCN(Cc5ccc(-n6c(O)nnc6-c6cc(C(C)C)c(O)cc6O)cc5)C4)CN3C)nc3c2CCN(c2cccc4cccc(Cl)c24)C3)C[C@@H]1CC#N [Compound 229, (3S,5S)-5-({[7-(8-chloronaphthalen-1-yl)-4-[(3S)-3-(cyanomethyl)-4-(prop-2-enoyl)piperazin-1-yl]-5H,6H,8H-pyrido[3,4-d]pyrimidin-2-yl]oxy}methyl)-N-[(3R)-1-({4-[3-(2,4-dihydroxy-5-isopropylphenyl)-5-hydroxy-1,2,4-triazol-4-yl]phenyl}methyl)piperidin-3-yl]-1-methylpyrrolidine-3-carboxamide] | > 7.00 | < 6.00 | – | – | – | – | – | – | – | > 7.00 | > 1000 | – |
| C=CC(=O)N1CCN(c2nc(OC[C@@H]3CCN(C(=O)C4CCN(Cc5ccc(-n6c(C(=O)NCC(F)(F)F)nnc6-c6cc(C(C)C)c(O)cc6O)cc5)CC4)C3)nc3c2CCN(c2cccc4cccc(Cl)c24)C3)C[C@@H]1CC#N [Compound 185, 4-(4-((4-((R)-3-(((4-((S)-4-acryloyl-3-(cyanomethyl)piperazin-1-yl)-7-(8-chloronaphthalen-1-yl)-5,6,7,8-tetrahydropyrido[3,4-d]pyrimidin-2-yl)oxy)methyl)pyrrolidine-1-carbonyl)piperidin-1-yl)methyl)phenyl)-5-(2,4-dihydroxy-5-isopropylphenyl)-N-(2,2,2-trifluoroethyl)-4H-1,2,4-triazole-3-carboxamide] | 6.00 to 7.00 | > 7.00 | < 33 | < 33 | < 33 | 33 to 66 | > 66 | > 66 | > 66 | 6.00 to 7.00 | – | – |
| C=CC(=O)N1CCN(c2nc(OC[C@@H]3CC[C@H](CN4CCN(C(=O)C5CCN(Cc6ccc(-n7c(O)nnc7-c7cc(C)c(O)cc7O)cc6)CC5)CC4)N3C)nc3c2CCN(c2cccc4cccc(Cl)c24)C3)C[C@@H]1CC#N [Compound 319, 2-[(2S)-4-[7-(8-chloronaphthalen-1-yl)-2-{[(2S,5R)-5-({4-[1-({4-[3-(2,4-dihydroxy-5-methylphenyl)-5-hydroxy-1,2,4-triazol-4-yl]phenyl}methyl)piperidine-4-carbonyl]piperazin-1-yl}methyl)-1-methylpyrrolidin-2-yl]methoxy}-5H,6H,8H-pyrido [3,4-d]pyrimidin-4-yl]-1-(prop-2-enoyl)piperazin-2-yl]acetonitrile] | > 7.00 | 6.00 to 7.00 | – | – | – | – | – | – | – | > 7.00 | 100 to 1000 | – |
| C=CC(=O)N1CCN(c2nc(OCCN3CCN(C(=O)C4CCN(Cc5ccc(-n6c(O)nnc6-c6cc(C(C)C)c(O)cc6O)cc5)CC4)CC3)nc3c2CCN(c2cccc4cccc(Cl)c24)C3)C[C@@H]1CC#N [Compound 192, (S)-2-(1-acryloyl-4-(7-(8-chloronaphthalen-1-yl)-2-(2-(4-(1-(4-(3-(2,4-dihydroxy-5-isopropylphenyl)-5-hydroxy-4H-1,2,4-triazol-4-yl)benzyl)piperidine-4-carbonyl)piperazin-1-yl)ethoxy)-5,6,7,8-tetrahydropyrido[3,4-d]pyrimidin-4-yl)piperazin-2-yl)acetonitrile, trifluoroacetic acid] | > 7.00 | 6.00 to 7.00 | – | – | – | – | – | – | – | > 7.00 | 100 to 1000 | – |

Further lines, results first:

| pIC50 (HSP90a protein) | pEC50 [1] | inhibition at 0.1562 µM (KRAS(G12C) [2]) [%] | inhibition at 0.3125 µM (KRAS(G12C) [2]) [%] | inhibition at 0.625 µM (KRAS(G12C) [2]) [%] | inhibition at 1.25 µM (KRAS(G12C) [2]) [%] | inhibition at 2.5 µM (KRAS(G12C) [2]) [%] | inhibition at 5 µM (KRAS(G12C) [2]) [%] | inhibition at 10 µM (KRAS(G12C) [2]) [%] | pIC50 (KRAS(G12C) [3]) | DC50 (KRAS(G12C) [4]) [nM] | pEC50 [5] | Structure (SMILES) |
| --- | --- | --- | --- | --- | --- | --- | --- | --- | --- | --- | --- | --- |
| 6.00 to 7.00 | 6.00 to 7.00 | < 33 | < 33 | < 33 | 33 to 66 | 33 to 66 | > 66 | > 66 | – | – | – | C=CC(=O)N1CCN(c2nc(OC[C@@H]3CCN(C(=O)C4CCN(Cc5ccc(-n6c(C(N)=O)nnc6-c6cc(C(C)C)c(O)cc6O)cc5)CC4)C3)nc3c2CCN(c2cccc4cccc(Cl)c24)C3)C[C@@H]1CC#N [Compound 183, 4-(4-((4-((R)-3-(((4-((S)-4-acryloyl-3-(cyanomethyl)piperazin-1-yl)-7-(8-chloronaphthalen-1-yl)-5,6,7,8-tetrahydropyrido[3,4-d]pyrimidin-2-yl)oxy)methyl)pyrrolidine-1-carbonyl)piperidin-1-yl)methyl)phenyl)-5-(2,4-dihydroxy-5-isopropylphenyl)-4H-1,2,4-triazole-3-carboxamide] |
| > 7.00 | 6.00 to 7.00 | – | – | – | – | – | – | – | > 7.00 | 100 to 1000 | – | C=CC(=O)N1CCN(c2nc(OC[C@@H]3C[C@H](N4CCC(C(=O)N5CCC6(CC5)CN(Cc5ccc(-n7c(O)nnc7-c7cc(C(C)C)c(O)cc7O)cc5)C6)CC4)CN3C)nc3c2CCN(c2cccc4cccc(Cl)c24)C3)C[C@@H]1CC#N [Compound 350, 2-[(2S)-4-[7-(8-chloronaphthalen-1-yl)-2-{[(2S,4S)-4-{4-[2-({4-[3-(2,4-dihydroxy-5-isopropylphenyl)-5-hydroxy-1,2,4-triazol-4-yl]phenyl}methyl)-2,7-diazaspiro [3.5]nonane-7-carbonyl]piperidin-1-yl}-1-methylpyrrolidin-2-yl]methoxy}-5H,6-H,8H-pyrido[3,4-d]pyrimidin-4-yl]-1-(prop-2-enoyl)piperazin-2-yl]acetonitrile] |
| > 7.00 | < 6.00 | – | – | – | – | – | – | – | 6.00 to 7.00 | > 1000 | – | C=CC(=O)N1CCN(c2nc(OCC3CN(C(=O)C4CCN(Cc5ccc(-n6c(C(=O)NCC(F)(F)F)nnc6-c6cc(C)c(O)cc6O)cc5)CC4)C3)nc3c2CCN(c2cccc4cccc(Cl)c24)C3)C[C@@H]1CC#N [Compound 219, (S)-4-(4-((4-(3-(((4-(4-acryloyl-3-(cyanomethyl)piperazin-1-yl)-7-(8-chloronaphthalen-1-yl)-5,6,7,8-tetrahydropyrido[3,4-d]pyrimidin-2-yl)oxy)methyl)azetidine-1-carbonyl)piperidin-1-yl)methyl)phenyl)-5-(2,4-dihydroxy-5-methylphenyl)-N-(2,2,2-trifluoroethyl)-4H-1,2,4-triazole-3-carboxamide] |
| < 6.00 | < 6.00 | < 33 | < 33 | < 33 | < 33 | < 33 | < 33 | < 33 | – | – | < 6.00 | C=CC(=O)N1CCN(c2nc(OC[C@@H]3CCN(C(=O)c4cc(C(C)C)c(O)cc4OC)C3)nc3c2CCN(c2cccc4cccc(Cl)c24)C3)C[C@@H]1CC#N [Compound 153, 2-((S)-1-acryloyl-4-(7-(8-chloronaphthalen-1-yl)-2-(((R)-1-(4-hydroxy-5-isopropyl-2-methoxybenzoyl)pyrrolidin-3-yl)methoxy)-5,6,7,8-tetrahydropyrido[3,4-d]pyrimidin-4-yl)piperazin-2-yl)acetonitrile] |
